Laboratory results published in patent publication US9044526B2, “Medical product containing active component of propolis or grapefruit seed extract and manufacturing method thereof” (Korea Institute of Ceramic Engineering and Technology, priority 2011, dated 2015).

Columns and labels:
[1] = tested on: Escherichia coli DH 5α (ATCC 25922); test: Antibacterial activity of impregnated multifilament, agar diffusion; assay type: cell-based; conditions: contained in multifilament, treatment concentration 1000 ppm, 37.1° C., 24 hours, FIG. 8
Experimental: (§1) The antibacterial activity of the multifilament of Example containing the grapefruit seed extract and the active components (CAPE and pinocembrin) of propolis was tested. In the test, the cells of bacterial strains were grown in LB medium (peptone 10 g) by agar diffusion, and the growth of the bacterial strains was examined by UV-Vis spectroscopy. As the test strains, Staphylococcus aureus (ATCC 6538) and Escherichia coli DH 5α (ATCC 25922) were used. The bacterial cells were cultured at 37.1° C. for 24 hours, and then changes in the bacterial strains were measured. FIG. 8 is a set of photographs showing a comparison of antibacterial activity between a multifilament containing the grapefruit seed extract and a multifilament containing the active component (CAPE) of propolis. […] In FIG. 8, 1: a control group, 2 to 6: samples impregnated with a solution of CAPE and the grapefruit seed extract; a: a sample treated with Staphylococcus aureus; b: a sample treated with Escherichia coli DH 5α. In the photograph of FIG. 8, the treatment concentration is 1000 ppm. […] Although a lower concentration of the antibacterial material is contained in the multifilament, it is considered that the test should be carried out at 1000 ppm, because the concentration of the antibacterial material in the multifilament will be excessively low when the test is carried out at a lower concentration. […]

[2] = tested on: Staphylococcus aureus (ATCC 6538); test: as above; assay type: cell-based; conditions: contained in multifilament, treatment concentration 1000 ppm, 37.1° C., 24 hours, FIG. 8
Experimental: as §1

[3] = Degradation behavior of PGLA multifilament in PBS solution; assay type: physicochemical
Description: FIG. 9 is a photograph showing the results of observing the degradation behavior of 0.1 g of the PGLA multifilament in PBS solution (pH7.4; similar to the human body) for 0 day, 10 days and 2 months. […] Also, it can be seen that the grapefruit seed extract and CAPE or pinocembrin which is the active component of propolis have no effect on the degradation of the multifilament.

[4] = Drug release of impregnated multifilament in 0.01M PBS; assay type: physicochemical; conditions: release from multifilament impregnated with 1000 ppm solution; 0.01M PBS pH 7.4, 37, examined 0-100 hours
Experimental: In order to examine the […] drug release of each of the multifilament samples impregnated with CAPE and GSE for 440 min and pinocembrin for 720 min in Example 3, the following test was performed. As a solvent for use in this release test, 0.01M PBS (by phosphate buffer calculator, monobasic monohydrate: 1.1832 g, and dibasic ACS reagent: 8.1572 g) was prepared and adjusted to a pH of 7.4. After standard curves of FIGS. 5A, 5B and 5C for the grapefruit seed extracts and CAPE and pinocembrin (the active components of propolis) were plotted, and then tests for the materials were performed at the respective concentrations. The standard curves for the functional materials were obtained by measuring the absorbance using JASCO V-550 UV-Vis Spectrometer (Wavelength Range: 200-900 nm; Bandwidth Selectable: 0.5 nm; Scanning Speed: 400 nm/min; Data Pitch: 1 nm). The standard curve equations shown in FIGS. 5A (CAPE), 5B (Pinocembrin) and 5C (grapefruit seed extract) are as follows: y=0.126x+0.022 CAPE (1) y=0.051x+0.021 Pinocembrin (2) y=0.002x−0.035 Grapefruit seed extract (3) wherein x is the concentration of each functional material, and y is the absorbance of each functional material. […]

Molecule	antibacterial activity [1]	antibacterial activity [2]	effect on the degradation of the multifilament ([3]; pH 7.4)	time at which drug release behavior was completed [4] [h]	effect on the degradation of the multifilament ([3]; PBS solution pH7.4, 0 day, 10 days and 2 months, FIG. 9)	degradation of the multifilament ([3]; pH 7.4)
O=C(/C=C/c1ccc(O)c(O)c1)OCCc1ccccc1 [CAPE, caffeic acid phenethyl ester]	showed antibacterial activity	showed antibacterial activity	no effect	≤ 64	–	–
O=C1CC(c2ccccc2)Oc2cc(O)cc(O)c21 (stereo not shown) [pinocembrin]	–	–	–	≤ 60	no effect	–
poly(glycolide-co-L-lactide) [PGLA multifilament]	–	–	–	–	–	significantly rapid
